In patent US7306804B2 (priority 1998, dated 2007):
Like-named read-outs stand apart in the source and are kept apart here.

Key:
[1] = tested on: PBMCs from control and HIV-1 infected chimpanzees; format: cell-based, chimpanzee
[2] = tested on: PBMCs from normal and HIV-positive individuals; format: cell-based, human
[3] = tested on: anti-peptide antibodies in serum; format: binding, chimpanzee; parameters: key: +, Positive (Titer > 1:100); −, Negative (Titer < 1:100)
[4] = tested on: anti-peptide antibodies in serum; format: binding, human; parameters: key to Anti-peptide antibody response: +, Positive (titer above control); −, Negative (titer below control)

In the case of CRIKQIINMWQGVGKAMYA [Peptide 122], the T-cell proliferative response ([1]; chimpanzee 40, control normal) is reported as “− (−, Negative (SI < 2.0))”, the T-cell proliferative response ([1]; chimpanzee 62, HIV-infected) is reported as “− (−, Negative (SI < 2.0))” and the T-cell proliferative response ([1]; chimpanzee 69, HIV-infected) is reported as “+ (+, Positive (Stimulation Index [SI] > 2.0))”. For the same sequence, the T-cell proliferative response ([1]; chimpanzee 73, control normal) was “− (−, Negative (SI < 2.0))”, the T-cell proliferative response ([1]; chimpanzee 80, HIV-infected) was “+ (+, Positive (Stimulation Index [SI] > 2.0))” and the T-cell proliferative response ([1]; chimpanzee 99, HIV-infected) was “− (−, Negative (SI < 2.0))”. For the same sequence, the T-cell proliferative response ([1]; chimpanzee 100, HIV-infected) was “+ (+, Positive (Stimulation Index [SI] > 2.0))”, the T-cell proliferative response ([1]; chimpanzee 139, HIV-infected) was “− (−, Negative (SI < 2.0))” and the T-cell proliferative response ([1]; chimpanzee 175, HIV-infected) was “+ (+, Positive (Stimulation Index [SI] > 2.0))”. The T-cell proliferative response ([1]; chimpanzee 247, HIV-infected) was “− (−, Negative (SI < 2.0))”, the T-cell proliferative response ([1]; chimpanzee 310, HIV-infected) was “− (−, Negative (SI < 2.0))” and the “number of HIV+ individuals with positive proliferative responses” value ([2]; 17 HIV+ individuals tested) was “seven”. The T-cell proliferative response ([2]; HIV-positive patient MSf) was “− (−, Negative (SI < 2.0))”, the T-cell proliferative response ([2]; HIV-positive patient MSm) was “− (−, Negative (SI < 2.0))” and the T-cell proliferative response ([2]; HIV-positive patient eight) was “− (−, Negative (SI < 2.0))”. For the same sequence, the T-cell proliferative response ([2]; HIV-positive patient eleven) was “− (−, Negative (SI < 2.0))”, the T-cell proliferative response ([2]; HIV-positive patient fifteen) was “+ (+, Positive (Stimulation Index [SI] > 2.0))” and the T-cell proliferative response ([2]; HIV-positive patient five) was “− (−, Negative (SI < 2.0))”. The T-cell proliferative response ([2]; HIV-positive patient four) was “− (−, Negative (SI < 2.0))”, the T-cell proliferative response ([2]; HIV-positive patient fourteen) was “+ (+, Positive (Stimulation Index [SI] > 2.0))” and the T-cell proliferative response ([2]; HIV-positive patient nine) was “+ (+, Positive (Stimulation Index [SI] > 2.0))”. For the same sequence, the T-cell proliferative response ([2]; HIV-positive patient one) was “+ (+, Positive (Stimulation Index [SI] > 2.0))”, the T-cell proliferative response ([2]; HIV-positive patient seven) was “− (−, Negative (SI < 2.0))” and the T-cell proliferative response ([2]; HIV-positive patient six) was “− (−, Negative (SI < 2.0))”. For the same sequence, the T-cell proliferative response ([2]; HIV-positive patient ten) was “+ (+, Positive (Stimulation Index [SI] > 2.0))”, the T-cell proliferative response ([2]; HIV-positive patient thirteen) was “− (−, Negative (SI < 2.0))” and the T-cell proliferative response ([2]; HIV-positive patient three) was “+ (+, Positive (Stimulation Index [SI] > 2.0))”. The T-cell proliferative response ([2]; HIV-positive patient twelve) was “+ (+, Positive (Stimulation Index [SI] > 2.0))”, the T-cell proliferative response ([2]; HIV-positive patient two) was “− (−, Negative (SI < 2.0))” and the T-cell proliferative response ([2]; Normal-1 (HIV-seronegative)) was “− (−, Negative (SI < 2.0))”. For the same sequence, the T-cell proliferative response ([2]; Normal-2 (HIV-seronegative)) was “− (−, Negative (SI < 2.0))”, the Anti-peptide antibody response [3] was “−” and the Anti-peptide antibody response ([3]; chimpanzee 40, control normal) was “−”. For the same sequence, the Anti-peptide antibody response ([3]; chimpanzee 73, control normal) was “−”, the “number of HIV+ individuals with positive antibody titers (<1:1280)” value [4] was “None” and the Anti-peptide antibody response ([4]; HIV-positive patient MSf) was “−”. For the same sequence, the Anti-peptide antibody response ([4]; HIV-positive patient MSm) was “−”, the Anti-peptide antibody response ([4]; HIV-positive patient eight) was “−” and the Anti-peptide antibody response ([4]; HIV-positive patient eleven) was “−”. The Anti-peptide antibody response ([4]; HIV-positive patient fifteen) was “−”, the Anti-peptide antibody response ([4]; HIV-positive patient five) was “−” and the Anti-peptide antibody response ([4]; HIV-positive patient four) was “−”. For the same sequence, the Anti-peptide antibody response ([4]; HIV-positive patient fourteen) was “−”, the Anti-peptide antibody response ([4]; HIV-positive patient nine) was “−” and the Anti-peptide antibody response ([4]; HIV-positive patient one) was “−”. The Anti-peptide antibody response ([4]; HIV-positive patient seven) was “−”, the Anti-peptide antibody response ([4]; HIV-positive patient six) was “−” and the Anti-peptide antibody response ([4]; HIV-positive patient ten) was “−”. For the same sequence, the Anti-peptide antibody response ([4]; HIV-positive patient thirteen) was “−”, the Anti-peptide antibody response ([4]; HIV-positive patient three) was “−” and the Anti-peptide antibody response ([4]; HIV-positive patient twelve) was “−”. For the same sequence, the Anti-peptide antibody response ([4]; HIV-positive patient two) was “−”, the Anti-peptide antibody response ([4]; Normal-1 (HIV-seronegative)) was “−” and the Anti-peptide antibody response ([4]; Normal-2 (HIV-seronegative)) was “−”.
